In general, EC50 refers to the concentration needed to bring the measured effect to its halfway point.

For this experiment, the system named is recombinant NL4-3 virus (Renilla luciferase in nef, Gag P373S). Put plainly: HIV cell culture assay (luciferase reporter virus in MT-2 cells). In kind it is cell-based. The settings on record: NL43. How it is done: HIV cell culture assay—MT-2 cells and 293T cells were obtained from the NIH AIDS Research and Reference Reagent Program. MT-2 cells were propagated in RPMI 1640 media supplemented with 10% heat inactivated fetal bovine serum, […]. The 293T cells were propagated in DMEM media supplemented with 10% heat inactivated fetal bovine serum (FBS), 100 units/ml penicillin G and 100 μg/ml streptomycin. The proviral DNA clone of NL4-3 was obtained from the NIH AIDS Research and Reference Reagent Program. A recombinant NL4-3 virus, in which a section of the nef gene from NL4-3 was replaced with the Renilla luciferase gene, was used as a reference virus. In addition, residue Gag P373 was converted to P373S. Briefly, the recombinant virus was prepared by transfection of the altered proviral clone of NL4-3. Transfections were performed in 293T cells using LipofectAMINE PLUS from Invitrogen (Carlsbad, Calif.), according to manufacturer's instruction. The virus was titered in MT-2 cells using luciferase enzyme activity as a marker. Luciferase was quantitated using the Dual Luciferase kit from Promega (Madison, Wis.), with modifications to the manufacturer's protocol. The diluted Passive Lysis solution was pre-mixed with the re-suspended Luciferase Assay Reagent and the re-suspended Stop & Glo Substrate (2:1:1 ratio). Fifty (50) μL of the mixture was added to each aspirated well on assay plates and luciferase activity was measured immediately on a Wallac TriLux (Perkin-Elmer). Antiviral activities of inhibitors toward the recombinant virus were quantified by measuring luciferase activity in cells infected for 4-5 days with NLRluc recombinants in the presence serial dilutions of the inhibitor. Table 1 is the key for the data in Table 2.
As to `C=C(C)[C@@H]1CC[C@]2(CO)CC[C@]3(C)[C@H](CC[C@@H]4[C@@]5(C)CC=C(c6ccc(C(=O)O)c(C(F)(F)F)c6)C(C)(C)[C@@H]5CC[C@]43C)[C@@H]12` [Example 5s, 4-((1R,3aS,5aR,5bR,7aR,11aS,11bR,13aR,13bR)-3a-(hydroxymethyl)-5a,5b,8,8,11a-pentamethyl-1-(prop-1-en-2-yl)-2,3,3a,4,5,5a,5b,6,7,7a,8,11,11a,11b,12,13,13a,13b-octadecahydro-1H-cyclopenta[a]chrysen-9-yl)-2-(trifluoromethyl)benzoic acid], the EC50 was less than 1000 nM. Under `C=C(C)[C@@H]1CC[C@]2(CO)CC[C@]3(C)[C@H](CC[C@@H]4[C@@]5(C)CC=C(c6ccc(C(=O)O)cc6Cl)C(C)(C)[C@@H]5CC[C@]43C)[C@@H]12` [Example 5n, 3-chloro-4-((1R,3aS,5aR,5bR,7aR,11aS,11bR,13aR,13bR)-3a-(hydroxymethyl)-5a,5b,8,8,11a-pentamethyl-1-(prop-1-en-2-yl)-2,3,3a,4,5,5a,5b,6,7,7a,8,11,11a,11b,12,13,13a,13b-octadecahydro-1H-cyclopenta[a]chrysen-9-yl)benzoic acid] stands less than 1000 nM; under `C=C(C)[C@@H]1CC[C@]2(CO)CC[C@]3(C)[C@H](CC[C@@H]4[C@@]5(C)CC=C(c6csc(C(=O)O)c6)C(C)(C)[C@@H]5CC[C@]43C)[C@@H]12` [Example 5d, 4-((1R,3aS,5aR,5bR,7aR,11aS,11bR,13bR)-3a-(hydroxymethyl)-5a,5b,8,8,11a-pentamethyl-1-(prop-1-en-2-yl)-2,3,3a,4,5,5a,5b,6,7,7a,8,11,11a,11b,12,13,13a,13b-octadecahydro-1H-cyclopenta[a]chrysen-9-yl)thiophene-2-carboxylic acid], less than 1000 nM. Next, `C=C(C)[C@@H]1CC[C@]2(C(=O)O)CC[C@]3(C)[C@H](CC[C@@H]4[C@@]5(C)CC=C(c6cccc(C(=O)O)c6)C(C)(C)[C@@H]5CC[C@]43C)[C@@H]12` [Example 2a, (1R,3aS,5aR,5bR,7aR,11aS,13aR,13bR)-9-(3-carboxyphenyl)-5a,5b,8,8,11a-pentamethyl-1-(prop-1-en-2-yl)-2,3,3a,4,5,5a,5b,6,7,7a,8,11,11a,11b,12,13,13a,13b-octadecahydro-1H-cyclopenta[a]chrysene-3a-carboxylic acid]: greater than 1000 nM; `C=C(C)[C@@H]1CC[C@]2(CO)CC[C@]3(C)[C@H](CC[C@@H]4[C@@]5(C)CC=C(c6ccc(C(=O)O)cc6F)C(C)(C)[C@@H]5CC[C@]43C)[C@@H]12` [Example 5k, 3-fluoro-4-((1R,3aS,5aR,5bR,7aR,11aS,11bR,13aR,13bR)-3a-(hydroxymethyl)-5a,5b,8,8,11a-pentamethyl-1-(prop-1-en-2-yl)-2,3,3a,4,5,5a,5b,6,7,7a,8,11,11a,11b,12,13,13a,13b-octadecahydro-1H-cyclopenta[a]chrysen-9-yl)benzoic acid]: less than 1000 nM; `C=C(C)[C@@H]1CC[C@]2(C(=O)O)CC[C@]3(C)[C@H](CC[C@@H]4[C@@]5(C)CC=C(c6ccc(C(=O)O)cc6)C(C)(C)[C@@H]5CC[C@]43C)[C@@H]12` [Example 2b, (1R,3aS,5aR,5bR,7aR,11aS,13aR,13bR)-9-(4-carboxyphenyl)-5a,5b,8,8,11a-pentamethyl-1-(prop-1-en-2-yl)-2,3,3a,4,5,5a,5b,6,7,7a,8,11,11a,11b,12,13,13a,13b-octadecahydro-1H-cyclopenta[a]chrysene-3a-carboxylic acid]: less than 1000 nM.

As to `CC(C)[C@@H]1CC[C@]2(C(=O)O)CC[C@]3(C)[C@H](CC[C@@H]4[C@@]5(C)CC[C@H](c6ccc(C(=O)O)cc6)C(C)(C)[C@@H]5CC[C@]43C)[C@@H]12` [Example 3b, (1S,3aS,5aR,5bR,7aS,9S,11aS,11bR,13aR,13bR)-9-(4-carboxyphenyl)-1-isopropyl-5a,5b,8,8,11a-pentamethylicosahydro-1H-cyclopenta[a]chrysene-3a-carboxylic acid], the EC50 was less than 1000 nM. Next, `C=C(C)[C@@H]1CC[C@]2(C(=O)O)CC[C@]3(C)[C@H](CC[C@@H]4[C@@]5(C)CC=C(c6ccc(/C=C/C(=O)O)cc6)C(C)(C)[C@@H]5CC[C@]43C)[C@@H]12` [Example 4h, (1R,3aS,5aR,5bR,7aR,11aS,11bR,13aR,13bR)-9-(4-((E)-2-carboxyvinyl)phenyl)-5a,5b,8,8,11a-pentamethyl-1-(prop-1-en-2-yl)-2,3,3a,4,5,5a,5b,6,7,7a,8,11,11a,11b,12,13,13a,13b-octadecahydro-1H-cyclopenta[a]chrysene-3a-carboxylic acid]: less than 1000 nM. With `C=C(C)[C@@H]1CC[C@]2(CO)CC[C@]3(C)[C@H](CC[C@@H]4[C@@]5(C)CC=C(c6ccc(C(=O)O)s6)C(C)(C)[C@@H]5CC[C@]43C)[C@@H]12` [Example 5c, 5-((1R,3aS,5aR,5bR,7aR,11aS,11bR,13bR)-3a-(hydroxymethyl)-5a,5b,8,8,11a-pentamethyl-1-(prop-1-en-2-yl)-2,3,3a,4,5,5a,5b,6,7,7a,8,11,11a,11b,12,13,13a,13b-octadecahydro-1H-cyclopenta[a]chrysen-9-yl)thiophene-2-carboxylic acid], the EC50 was 230 nM. Take `C=C(C)[C@@H]1CC[C@]2(C(=O)O)CC[C@]3(C)[C@H](CC[C@@H]4[C@@]5(C)CC=C(c6ccc(C7(C(=O)O)CC7)cc6)C(C)(C)[C@@H]5CC[C@]43C)[C@@H]12` [Example 4c, (1R,3aS,5aR,5bR,7aR,11aS,11bR,13aR,13bR)-9-(4-(1-carboxycyclopropyl)phenyl)-5a,5b,8,8,11a-pentamethyl-1-(prop-1-en-2-yl)-2,3,3a,4,5,5a,5b,6,7,7a,8,11,11a,11b,12,13,13a,13b-octadecahydro-1H-cyclopenta[a]chrysene-3a-carboxylic acid]: the EC50 is less than 1000 nM.

As to `C=C(C)[C@@H]1CC[C@]2(C(=O)O)CC[C@]3(C)[C@H](CC[C@@H]4[C@@]5(C)CC=C(c6ccc(C(=O)NS(=O)(=O)C(C)C)cc6)C(C)(C)[C@@H]5CC[C@]43C)[C@@H]12` [Example 6a, (1R,3aS,5aR,5bR,7aR,11aS,13aR,13bR)-9-(4-(isopropylsulfonylcarbamoyl)phenyl)-5a,5b,8,8,11a-pentamethyl-1-(prop-1-en-2-yl)-2,3,3a,4,5,5a,5b,6,7,7a,8,11,11a,11b,12,13,13a,13b-octadecahydro-1H-cyclopenta[a]chrysene-3a-carboxylic acid], the EC50 was less than 1000 nM. Under `C=C(C)[C@@H]1CC[C@]2(C(=O)OC)CC[C@]3(C)[C@H](CC[C@@H]4[C@@]5(C)CC=C(c6cccc(C(=O)O)c6)C(C)(C)[C@@H]5CC[C@]43C)[C@@H]12` [Example 1a, 3-((1R,3aS,5aR,5bR,7aR,11aS,13aR,13bR)-3a-(methoxycarbonyl)-5a,5b,8,8,11a-pentamethyl-1-(prop-1-en-2-yl)-2,3,3a,4,5,5a,5b,6,7,7a,8,11,11a,11b,12,13,13a,13b-octadecahydro-1H-cyclopenta[a]chrysen-9-yl)benzoic acid] stands greater than 1000 nM; under `C[C@H]1[C@H](C)CC[C@]2(C(=O)O)CC[C@]3(C)C(=CC[C@@H]4[C@@]5(C)CC=C(c6ccc(C(=O)O)cc6)C(C)(C)[C@@H]5CC[C@]43C)[C@H]12` [Example 12, (1S,2R,4aS,6aS,6bR,8aR,12aS,12bR,14bS)-10-(4-carboxyphenyl)-1,2,6a,6b,9,9,12a-heptamethyl-1,2,3,4,4a,5,6,6a,6b,7,8,8a,9,12,12a,12b,13,14b-octadecahydropicene-4-a-carboxylic acid], less than 1000 nM. In the case of `C=C(C)[C@@H]1CC[C@]2(C(=O)O)CC[C@]3(C)[C@H](CC[C@@H]4[C@@]5(C)CC=C(c6ccc(S(C)(=O)=O)cc6)C(C)(C)[C@@H]5CC[C@]43C)[C@@H]12` [Example 4j, (1R,3aS,5aR,5bR,7aR,11aS,11bR,13aR,13bR)-5a,5b,8,8,11a-pentamethyl-9-(4-(methylsulfonyl)phenyl)-1-(prop-1-en-2-yl)-2,3,3a,4,5,5a,5b,6,7,7a,8,11,11a,11b,12,13,13a,13b-octadecahydro-1H-cyclopenta[a]chrysene-3a-carboxylic acid], the EC50 was greater than 1000 nM. Under `C=C(C)[C@@H]1CC[C@]2(CO)CC[C@]3(C)[C@H](CC[C@@H]4[C@@]5(C)CC=C(c6ccc(C(=O)O)c(OC)c6)C(C)(C)[C@@H]5CC[C@]43C)[C@@H]12` [Example 5o, 4-((1R,3aS,5aR,5bR,7aR,11aS,11bR,13aR,13bR)-3a-(hydroxymethyl)-5a,5b,8,8,11a-pentamethyl-1-(prop-1-en-2-yl)-2,3,3a,4,5,5a,5b,6,7,7a,8,11,11a,11b,12,13,13a,13b-octadecahydro-1H-cyclopenta[a]chrysen-9-yl)-2-methoxybenzoic acid] stands 500 nM.

The values above are taken from patent publication US8754068B2, “Modified C-3 betulinic acid derivatives as HIV maturation inhibitors” (priority 2010, dated 2014).
